{"source": "ChEMBL document CHEMBL4024706", "about": "(Eur J Med Chem, 2017)", "key": {"[1]": {"molecular_target": "cAMP-dependent protein kinase catalytic subunit beta (Homo sapiens) (UniProt P22694)", "assay": "Inhibition of wild-type human full length PKAC-beta (M1 to F351 residues) expressed in bacterial expression system assessed as residual activity at 1 uM by Kinomescan method relative to control"}, "[2]": {"molecular_target": "Mitogen-activated protein kinase kinase kinase 20 (Homo sapiens) (UniProt Q9NYL2)", "sequence (Q9NYL2 2-800 limits assumed)": "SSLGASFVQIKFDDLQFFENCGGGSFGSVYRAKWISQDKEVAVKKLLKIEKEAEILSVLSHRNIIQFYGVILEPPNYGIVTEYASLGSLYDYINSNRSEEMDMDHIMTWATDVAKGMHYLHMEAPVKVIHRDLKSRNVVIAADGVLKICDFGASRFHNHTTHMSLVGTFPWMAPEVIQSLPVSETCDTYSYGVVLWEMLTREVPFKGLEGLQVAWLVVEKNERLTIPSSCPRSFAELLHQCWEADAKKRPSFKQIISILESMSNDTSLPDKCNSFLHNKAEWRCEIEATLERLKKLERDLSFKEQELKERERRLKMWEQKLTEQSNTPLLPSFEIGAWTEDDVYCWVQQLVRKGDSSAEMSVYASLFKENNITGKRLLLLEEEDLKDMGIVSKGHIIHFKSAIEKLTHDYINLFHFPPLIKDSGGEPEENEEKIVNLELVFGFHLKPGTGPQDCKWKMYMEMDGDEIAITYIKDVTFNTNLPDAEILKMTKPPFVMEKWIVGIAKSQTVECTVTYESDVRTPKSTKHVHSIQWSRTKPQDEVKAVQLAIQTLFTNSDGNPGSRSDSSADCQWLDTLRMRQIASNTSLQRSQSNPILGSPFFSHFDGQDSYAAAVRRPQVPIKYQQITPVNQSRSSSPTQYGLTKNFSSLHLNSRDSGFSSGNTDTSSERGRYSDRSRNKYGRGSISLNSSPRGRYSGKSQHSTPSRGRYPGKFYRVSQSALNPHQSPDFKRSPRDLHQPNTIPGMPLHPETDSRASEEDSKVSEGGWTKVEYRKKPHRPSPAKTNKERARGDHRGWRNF", "assay": "Inhibition of wild-type human partial length ZAK (M1 to L331 residues) expressed in bacterial expression system assessed as residual activity at 1 uM by Kinomescan method relative to control"}, "[3]": {"system": "NB-4", "assay": "Growth inhibition of human NB4 cells", "type": "functional", "conditions": "Homo sapiens, NB-4"}, "[4]": {"molecular_target": "Casein kinase I isoform alpha (Homo sapiens) (UniProt P48729)", "assay": "Inhibition of wild-type human partial length CSNK1A1 (M1 to L450 residues) expressed in mammalian expression system assessed as residual activity at 1 uM by Kinomescan method relative to control"}, "[5]": {"system": "Mast/stem cell growth factor receptor Kit (Homo sapiens), P10721 [L576P]", "assay": "Inhibition of human partial length KIT L576P mutant (Y545 to D952 residues) expressed in bacterial expression system assessed as residual activity at 1 uM by Kinomescan method relative to control"}, "[6]": {"molecular_target": "Non-receptor tyrosine-protein kinase TYK2 (Homo sapiens) (UniProt P29597)", "assay": "Inhibition of wild-type human partial length TYK2 JH1 catalytic domain (V877 to C1187 residues) expressed in mammalian expression system assessed as residual activity at 1 uM by Kinomescan method relative to control"}, "[7]": {"molecular_target": "Phosphatidylinositol 4-kinase beta (Homo sapiens) (UniProt Q9UBF8)", "assay": "Inhibition of wild-type human full length PIK4CB (M1 to M828 residues) expressed in mammalian expression system assessed as residual activity at 1 uM by Kinomescan method relative to control"}, "[8]": {"molecular_target": "Tyrosine-protein kinase receptor UFO (Homo sapiens) (UniProt P30530)", "assay": "Inhibition of wild-type human partial length AXL (R497 to Y821 residues) expressed in bacterial expression system assessed as residual activity at 1 uM by Kinomescan method relative to control"}, "[9]": {"molecular_target": "Serine/threonine-protein kinase 24 (Homo sapiens) (UniProt Q9Y6E0)", "sequence (Q9Y6E0 whole entry, looked up, the tested form may be a part)": "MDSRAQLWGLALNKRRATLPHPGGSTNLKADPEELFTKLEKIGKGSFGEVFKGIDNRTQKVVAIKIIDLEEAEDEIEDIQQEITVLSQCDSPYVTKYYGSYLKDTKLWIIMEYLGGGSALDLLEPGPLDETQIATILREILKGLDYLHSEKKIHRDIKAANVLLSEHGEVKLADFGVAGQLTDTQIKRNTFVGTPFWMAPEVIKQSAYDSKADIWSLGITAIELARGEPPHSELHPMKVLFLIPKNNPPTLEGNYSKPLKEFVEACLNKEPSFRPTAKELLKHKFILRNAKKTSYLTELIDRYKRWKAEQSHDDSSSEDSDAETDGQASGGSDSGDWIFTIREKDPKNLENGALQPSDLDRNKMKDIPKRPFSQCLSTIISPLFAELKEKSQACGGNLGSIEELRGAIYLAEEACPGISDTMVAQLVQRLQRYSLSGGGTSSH", "assay": "Inhibition of wild-type human partial length MST3 (A30 to S311 residues) expressed in bacterial expression system assessed as residual activity at 1 uM by Kinomescan method relative to control"}, "[10]": {"assay": "Tmax in Sprague-Dawley rat at 10 mg/kg, po by LC-MS/MS method", "type": "ADME, organism-based", "conditions": "in vivo"}, "[11]": {"assay": "AUC (0 to infinity) in Sprague-Dawley rat at 1 mg/kg, iv by LC-MS/MS method", "type": "ADME, organism-based", "parameters": "dose 1 mg/kg, route intravenous, time infinity", "conditions": "in vivo"}, "[12]": {"molecular_target": "Rhodopsin kinase GRK7 (Homo sapiens) (UniProt Q8WTQ7)", "assay": "Inhibition of wild-type human full length GRK7 (M1 to L553 residues) expressed in mammalian expression system assessed as residual activity at 1 uM by Kinomescan method relative to control"}, "[13]": {"molecular_target": "Tyrosine-protein kinase Fer (Homo sapiens) (UniProt P16591)", "assay": "Inhibition of wild-type human partial length FER (S542 to T822 residues) expressed in bacterial expression system assessed as residual activity at 1 uM by Kinomescan method relative to control"}, "[14]": {"molecular_target": "Focal adhesion kinase 1 (Homo sapiens) (UniProt Q05397)", "assay": "Inhibition of wild-type human partial length FAK (D402 to R696 residues) expressed in bacterial expression system assessed as residual activity at 1 uM by Kinomescan method relative to control"}, "[15]": {"molecular_target": "Serine/threonine-protein kinase DCLK1 (Homo sapiens) (UniProt O15075)", "assay": "Inhibition of wild-type human partial length DCAMKL1 (L270 to A662 residues) expressed in mammalian expression system assessed as residual activity at 1 uM by Kinomescan method relative to control"}, "[16]": {"molecular_target": "Protein kinase C theta type (Homo sapiens) (UniProt Q04759)", "sequence (Q04759 whole entry, looked up, the tested form may be a part)": "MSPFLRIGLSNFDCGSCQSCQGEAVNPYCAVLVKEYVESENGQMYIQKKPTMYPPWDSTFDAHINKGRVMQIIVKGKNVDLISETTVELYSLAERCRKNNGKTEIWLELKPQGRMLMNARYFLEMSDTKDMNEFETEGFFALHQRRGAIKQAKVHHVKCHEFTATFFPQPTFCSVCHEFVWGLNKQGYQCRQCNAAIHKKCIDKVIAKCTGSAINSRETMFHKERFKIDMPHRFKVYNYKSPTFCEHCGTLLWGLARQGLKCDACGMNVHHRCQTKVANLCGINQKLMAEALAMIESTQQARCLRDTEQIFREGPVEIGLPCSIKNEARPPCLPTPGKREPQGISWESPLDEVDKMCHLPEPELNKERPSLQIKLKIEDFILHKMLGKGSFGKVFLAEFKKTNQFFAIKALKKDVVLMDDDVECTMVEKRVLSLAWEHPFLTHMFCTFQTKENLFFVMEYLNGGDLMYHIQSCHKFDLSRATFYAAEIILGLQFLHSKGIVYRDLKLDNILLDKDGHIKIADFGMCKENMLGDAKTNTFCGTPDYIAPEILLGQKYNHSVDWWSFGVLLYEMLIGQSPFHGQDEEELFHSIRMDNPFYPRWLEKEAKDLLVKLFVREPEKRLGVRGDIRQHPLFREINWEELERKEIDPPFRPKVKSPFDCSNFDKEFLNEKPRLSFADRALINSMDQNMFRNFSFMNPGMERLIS", "assay": "Inhibition of wild-type human partial length PRKCQ (L350 to S706 residues) expressed in bacterial expression system assessed as residual activity at 1 uM by Kinomescan method relative to control"}, "[17]": {"molecular_target": "Macrophage colony-stimulating factor 1 receptor (Homo sapiens) (UniProt P07333)", "assay": "Inhibition of wild-type human partial length autoinhibited CSF1R (Y538 to S939 residues) expressed in mammalian expression system assessed as residual activity at 1 uM by Kinomescan method relative to control"}, "[18]": {"molecular_target": "Mitogen-activated protein kinase 9 (Homo sapiens) (UniProt P45984)", "assay": "Inhibition of wild-type human full length JNK2 (M1 to Q382 residues) expressed in mammalian expression system assessed as residual activity at 1 uM by Kinomescan method relative to control"}, "[19]": {"molecular_target": "Serine/threonine-protein kinase 36 (Homo sapiens) (UniProt Q9NRP7)", "assay": "Inhibition of wild-type human partial length STK36 (M1 to T271 residues) expressed in bacterial expression system assessed as residual activity at 1 uM by Kinomescan method relative to control"}, "[20]": {"molecular_target": "Ephrin type-B receptor 1 (Homo sapiens) (UniProt P54762)", "sequence (P54762 whole entry, the tested form may be a part)": "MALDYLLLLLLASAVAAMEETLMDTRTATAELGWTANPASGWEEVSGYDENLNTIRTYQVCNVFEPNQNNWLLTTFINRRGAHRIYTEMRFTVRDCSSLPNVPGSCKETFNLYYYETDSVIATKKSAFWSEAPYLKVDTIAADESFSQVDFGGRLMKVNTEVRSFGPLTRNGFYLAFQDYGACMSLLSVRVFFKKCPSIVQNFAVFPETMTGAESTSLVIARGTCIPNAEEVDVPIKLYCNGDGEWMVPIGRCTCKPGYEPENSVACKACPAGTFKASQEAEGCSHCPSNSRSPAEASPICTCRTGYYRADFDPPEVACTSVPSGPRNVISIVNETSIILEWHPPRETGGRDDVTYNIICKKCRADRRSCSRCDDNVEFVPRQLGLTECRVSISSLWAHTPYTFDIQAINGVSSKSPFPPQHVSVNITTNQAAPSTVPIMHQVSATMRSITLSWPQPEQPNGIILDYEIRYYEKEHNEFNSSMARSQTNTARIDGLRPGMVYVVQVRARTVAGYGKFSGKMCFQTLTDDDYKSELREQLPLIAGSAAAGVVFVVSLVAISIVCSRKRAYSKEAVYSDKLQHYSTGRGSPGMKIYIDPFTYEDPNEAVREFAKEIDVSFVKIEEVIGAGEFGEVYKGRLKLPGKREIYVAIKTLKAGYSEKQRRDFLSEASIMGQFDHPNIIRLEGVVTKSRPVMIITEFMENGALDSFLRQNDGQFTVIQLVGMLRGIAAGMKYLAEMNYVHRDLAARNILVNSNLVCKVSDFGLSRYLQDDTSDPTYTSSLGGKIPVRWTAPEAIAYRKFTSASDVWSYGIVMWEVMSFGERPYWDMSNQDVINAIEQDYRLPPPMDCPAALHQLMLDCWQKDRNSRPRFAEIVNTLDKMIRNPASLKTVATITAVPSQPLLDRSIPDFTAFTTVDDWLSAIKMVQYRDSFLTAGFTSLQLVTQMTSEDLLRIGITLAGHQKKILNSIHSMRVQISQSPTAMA", "assay": "Inhibition of wild-type human partial length EPHB1 (P589 to T911 residues) expressed in bacterial expression system assessed as residual activity at 1 uM by Kinomescan method relative to control"}, "[21]": {"molecular_target": "Death-associated protein kinase 3 (Homo sapiens) (UniProt O43293)", "assay": "Inhibition of wild-type human partial length DAPK3 (M1 to A277 residues) expressed in bacterial expression system assessed as residual activity at 1 uM by Kinomescan method relative to control"}, "[22]": {"molecular_target": "Protein kinase C delta type (Homo sapiens) (UniProt Q05655)", "sequence (Q05655 whole entry, looked up, the tested form may be a part)": "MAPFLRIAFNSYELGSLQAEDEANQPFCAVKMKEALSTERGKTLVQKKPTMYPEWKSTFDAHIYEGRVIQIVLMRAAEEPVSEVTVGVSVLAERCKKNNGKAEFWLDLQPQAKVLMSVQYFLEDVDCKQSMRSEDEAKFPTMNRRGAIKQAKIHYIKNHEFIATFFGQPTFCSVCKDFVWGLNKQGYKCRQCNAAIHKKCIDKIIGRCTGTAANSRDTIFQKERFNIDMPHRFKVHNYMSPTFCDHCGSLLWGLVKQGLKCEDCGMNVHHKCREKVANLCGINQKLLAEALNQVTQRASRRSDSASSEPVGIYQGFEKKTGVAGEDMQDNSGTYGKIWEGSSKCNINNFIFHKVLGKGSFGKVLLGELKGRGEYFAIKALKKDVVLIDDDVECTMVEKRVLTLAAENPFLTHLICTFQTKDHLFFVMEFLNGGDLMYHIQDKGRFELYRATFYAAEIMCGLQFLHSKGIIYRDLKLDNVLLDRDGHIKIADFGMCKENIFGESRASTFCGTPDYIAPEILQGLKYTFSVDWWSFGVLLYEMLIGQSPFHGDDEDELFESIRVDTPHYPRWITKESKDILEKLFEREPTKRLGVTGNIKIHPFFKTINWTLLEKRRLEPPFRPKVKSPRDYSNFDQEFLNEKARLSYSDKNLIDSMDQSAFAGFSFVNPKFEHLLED", "assay": "Inhibition of wild-type human partial length PRKCD (Q328 to D676 residues) expressed in bacterial expression system assessed as residual activity at 1 uM by Kinomescan method relative to control"}, "[23]": {"molecular_target": "Serine/threonine-protein kinase LATS1 (Homo sapiens) (UniProt O95835)", "assay": "Inhibition of wild-type human partial length LATS1 (Q678 to V1130 residues) expressed in bacterial expression system assessed as residual activity at 1 uM by Kinomescan method relative to control"}, "[24]": {"molecular_target": "Atypical kinase COQ8B, mitochondrial (Homo sapiens) (UniProt Q96D53)", "assay": "Inhibition of wild-type human full length ADCK4 (M1 to S544 residues) expressed in bacterial expression system assessed as residual activity at 1 uM by Kinomescan method relative to control"}, "[25]": {"molecular_target": "Testis-specific serine/threonine-protein kinase 3 (Homo sapiens) (UniProt Q96PN8)", "assay": "Inhibition of wild-type human full length TSSK3 (M1 to T268 residues) expressed in mammalian expression system assessed as residual activity at 1 uM by Kinomescan method relative to control"}, "[26]": {"molecular_target": "Misshapen-like kinase 1 (Homo sapiens) (UniProt Q8N4C8)", "sequence (Q8N4C8 whole entry, looked up, the tested form may be a part)": "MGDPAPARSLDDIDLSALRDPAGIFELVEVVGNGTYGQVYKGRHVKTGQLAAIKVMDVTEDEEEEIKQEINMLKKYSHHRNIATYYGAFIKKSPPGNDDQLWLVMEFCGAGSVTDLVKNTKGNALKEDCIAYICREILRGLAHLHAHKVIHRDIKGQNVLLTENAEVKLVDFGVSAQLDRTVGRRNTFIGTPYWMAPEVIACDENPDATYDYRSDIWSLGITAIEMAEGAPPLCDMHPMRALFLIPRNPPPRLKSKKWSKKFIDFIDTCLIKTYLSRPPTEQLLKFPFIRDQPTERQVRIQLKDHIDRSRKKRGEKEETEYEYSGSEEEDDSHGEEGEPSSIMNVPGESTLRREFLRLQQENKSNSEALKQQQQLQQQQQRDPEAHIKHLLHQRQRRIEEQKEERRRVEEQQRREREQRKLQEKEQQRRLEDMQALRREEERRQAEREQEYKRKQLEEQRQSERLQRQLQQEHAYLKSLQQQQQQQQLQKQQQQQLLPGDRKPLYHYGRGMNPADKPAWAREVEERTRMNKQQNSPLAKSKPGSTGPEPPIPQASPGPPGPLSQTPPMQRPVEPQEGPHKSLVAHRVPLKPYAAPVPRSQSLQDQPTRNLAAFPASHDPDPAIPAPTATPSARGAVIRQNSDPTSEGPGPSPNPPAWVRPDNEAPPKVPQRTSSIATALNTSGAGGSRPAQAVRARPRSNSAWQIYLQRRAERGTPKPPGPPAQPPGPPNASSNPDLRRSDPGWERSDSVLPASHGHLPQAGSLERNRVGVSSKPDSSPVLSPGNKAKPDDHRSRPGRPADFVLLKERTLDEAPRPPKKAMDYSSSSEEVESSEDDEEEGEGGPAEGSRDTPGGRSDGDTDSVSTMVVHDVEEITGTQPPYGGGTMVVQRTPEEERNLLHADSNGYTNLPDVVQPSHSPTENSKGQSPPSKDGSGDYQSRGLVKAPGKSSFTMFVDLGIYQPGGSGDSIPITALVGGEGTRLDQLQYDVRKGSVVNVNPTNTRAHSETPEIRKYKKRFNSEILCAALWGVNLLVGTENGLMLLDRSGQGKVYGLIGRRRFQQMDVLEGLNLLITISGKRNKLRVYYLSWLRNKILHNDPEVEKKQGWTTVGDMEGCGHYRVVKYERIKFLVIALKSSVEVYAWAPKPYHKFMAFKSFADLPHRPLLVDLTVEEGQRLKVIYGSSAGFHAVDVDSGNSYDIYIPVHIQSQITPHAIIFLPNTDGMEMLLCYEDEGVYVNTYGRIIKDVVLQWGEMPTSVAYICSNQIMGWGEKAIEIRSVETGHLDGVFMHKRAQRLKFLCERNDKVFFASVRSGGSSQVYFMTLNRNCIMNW", "assay": "Inhibition of wild-type human partial length MINK (M1 to K312 residues) expressed in mammalian expression system assessed as residual activity at 1 uM by Kinomescan method relative to control"}, "[27]": {"molecular_target": "NT-3 growth factor receptor (Homo sapiens) (UniProt Q16288)", "assay": "Inhibition of wild-type human partial length TRKC (Q531 to G825 residues) expressed in mammalian expression system assessed as residual activity at 1 uM by Kinomescan method relative to control"}}}
{"smiles": "C=CC(=O)Nc1cc(Nc2cc(-c3cccc(NC(=O)c4ccc(C(C)(C)C)cc4)c3C)cn(C)c2=O)ccc1C(=O)N1CCOCC1", "values": [{"measurement": "Activity", "setting": "[1]", "value": 96, "unit": "%"}, {"measurement": "Activity", "setting": "[2]", "value": 94, "unit": "%"}, {"measurement": "GI50", "setting": "[3]", "value": 6.6, "unit": "µM"}, {"measurement": "Activity", "setting": "[4]", "value": 100, "unit": "%"}, {"measurement": "Activity", "setting": "[5]", "value": 97, "unit": "%"}, {"measurement": "Activity", "setting": "[6]", "value": 74, "unit": "%"}, {"measurement": "Activity", "setting": "[7]", "value": 90, "unit": "%"}, {"measurement": "Activity", "setting": "[8]", "value": 86, "unit": "%"}, {"measurement": "Activity", "setting": "[9]", "value": 98, "unit": "%"}, {"measurement": "Tmax", "setting": "[10]", "value": 30, "unit": "min"}, {"measurement": "AUC(0-inf)", "setting": "[11]", "value": 183, "unit": "ng·h/mL"}, {"measurement": "Activity", "setting": "[12]", "value": 94, "unit": "%"}, {"measurement": "Activity", "setting": "[13]", "value": 99, "unit": "%"}, {"measurement": "Activity", "setting": "[14]", "value": 96, "unit": "%"}, {"measurement": "Activity", "setting": "[15]", "value": 95, "unit": "%"}, {"measurement": "Activity", "setting": "[16]", "value": 91, "unit": "%"}, {"measurement": "Activity", "setting": "[17]", "value": 100, "unit": "%"}, {"measurement": "Activity", "setting": "[18]", "value": 98, "unit": "%"}, {"measurement": "Activity", "setting": "[19]", "value": 93, "unit": "%"}, {"measurement": "Activity", "setting": "[20]", "value": 100, "unit": "%"}, {"measurement": "Activity", "setting": "[21]", "value": 100, "unit": "%"}, {"measurement": "Activity", "setting": "[22]", "value": 96, "unit": "%"}, {"measurement": "Activity", "setting": "[23]", "value": 74, "unit": "%"}, {"measurement": "Activity", "setting": "[24]", "value": 100, "unit": "%"}, {"measurement": "Activity", "setting": "[25]", "value": 100, "unit": "%"}, {"measurement": "Activity", "setting": "[26]", "value": 82, "unit": "%"}, {"measurement": "Activity", "setting": "[27]", "value": 76, "unit": "%"}]}
